Source: publication PMC2134300 (The Journal of Cell Biology, 1997)
Residues, ends and D or L forms follow the SMILES beside them. *: point of attachment. Cbz = O=C(OCc1ccccc1)*; CH2Cl = ClC*; CH2F = FC*

biological target: T1, T. cruzi oligopeptidase B (rPEP, recombinant 120-kD peptidase) (Trypanosoma cruzi, UniProt Q94795); test: fluorimetric inhibition of Z-Phe-Arg-AMC hydrolysis; format: biochemical
T1 sequence (Q94795 1-714): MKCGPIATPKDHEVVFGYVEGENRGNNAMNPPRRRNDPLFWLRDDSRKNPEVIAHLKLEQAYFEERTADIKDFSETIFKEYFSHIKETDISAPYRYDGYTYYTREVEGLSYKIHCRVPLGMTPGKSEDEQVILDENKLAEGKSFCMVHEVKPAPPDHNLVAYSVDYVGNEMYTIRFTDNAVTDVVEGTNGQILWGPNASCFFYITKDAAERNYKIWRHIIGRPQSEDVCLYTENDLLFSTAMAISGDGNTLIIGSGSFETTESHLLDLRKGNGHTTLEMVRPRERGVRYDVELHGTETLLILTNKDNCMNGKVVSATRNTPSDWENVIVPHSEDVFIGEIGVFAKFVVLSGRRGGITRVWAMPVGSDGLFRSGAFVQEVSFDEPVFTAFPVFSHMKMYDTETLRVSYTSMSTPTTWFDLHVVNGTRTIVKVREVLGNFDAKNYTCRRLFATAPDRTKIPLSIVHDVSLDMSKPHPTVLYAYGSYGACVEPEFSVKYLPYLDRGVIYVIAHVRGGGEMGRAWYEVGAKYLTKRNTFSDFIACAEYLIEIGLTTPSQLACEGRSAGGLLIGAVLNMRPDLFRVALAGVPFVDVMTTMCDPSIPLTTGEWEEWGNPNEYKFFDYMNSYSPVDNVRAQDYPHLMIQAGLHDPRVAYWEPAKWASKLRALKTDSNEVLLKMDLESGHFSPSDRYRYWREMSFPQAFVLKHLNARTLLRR

SMILES | IC50 [nM]
O=C(O)c1cc[c]([Hg][Cl])cc1 [p-chloromercuribenzoic acid] | 330
Cc1ccc(S(=O)(=O)N[C@@H](CCCCN)C(=O)CCl)cc1 [N-α-p-tosyl-l-lysine-chloromethyl ketone] | 600
N=C(N)NCCC[C@H](NC(=O)[C@H](Cc1ccccc1)NC(=O)OCc1ccccc1)C(=O)CF [Z-Phe-Arg-fluoromethylketone] (Cbz-Phe-Arg-CH2F) | 250
CC(=O)N[C@@H](CCCNC(=N)N)C(=O)N[C@@H](CCCNC(=N)N)C(=O)CCl [acetylArg-Arg-chloromethylketone] (Ac-Arg-Arg-CH2Cl) | 200
